Where a name gives a salt, the structure may show the parent alone.
Target: T1, Full length human recombinant PIKFYVE (Homo sapiens, UniProt Q9Y2I7)
T1 construct: Full length human recombinant PIKFYVE; purchased Carna Biosciences (Kobe, Japan); host or cells: baculovirus expression system
Experiment: Inhibition of PIKfyve (microfluidic electrophoresis kinase assay, PI3P/PS substrate)
Assay type: biochemical
Conditions: 12 concentrations
How it was run: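 Percent inhibition, from 12 concentrations, was derived from the product/(substrate+product) peak ratio separated by microfluidic electrophoresis, normalized to DMSO-only and enzyme-free controls. Reactions ran 3 h at room temperature: 2 nM N-terminal GST-PIKFYVE, 1 μM fluorescent PI3P in PS vesicles, […], HEPES pH 7.5, MgCl2/MnCl2.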

T1 sequence (Q9Y2I7 whole entry): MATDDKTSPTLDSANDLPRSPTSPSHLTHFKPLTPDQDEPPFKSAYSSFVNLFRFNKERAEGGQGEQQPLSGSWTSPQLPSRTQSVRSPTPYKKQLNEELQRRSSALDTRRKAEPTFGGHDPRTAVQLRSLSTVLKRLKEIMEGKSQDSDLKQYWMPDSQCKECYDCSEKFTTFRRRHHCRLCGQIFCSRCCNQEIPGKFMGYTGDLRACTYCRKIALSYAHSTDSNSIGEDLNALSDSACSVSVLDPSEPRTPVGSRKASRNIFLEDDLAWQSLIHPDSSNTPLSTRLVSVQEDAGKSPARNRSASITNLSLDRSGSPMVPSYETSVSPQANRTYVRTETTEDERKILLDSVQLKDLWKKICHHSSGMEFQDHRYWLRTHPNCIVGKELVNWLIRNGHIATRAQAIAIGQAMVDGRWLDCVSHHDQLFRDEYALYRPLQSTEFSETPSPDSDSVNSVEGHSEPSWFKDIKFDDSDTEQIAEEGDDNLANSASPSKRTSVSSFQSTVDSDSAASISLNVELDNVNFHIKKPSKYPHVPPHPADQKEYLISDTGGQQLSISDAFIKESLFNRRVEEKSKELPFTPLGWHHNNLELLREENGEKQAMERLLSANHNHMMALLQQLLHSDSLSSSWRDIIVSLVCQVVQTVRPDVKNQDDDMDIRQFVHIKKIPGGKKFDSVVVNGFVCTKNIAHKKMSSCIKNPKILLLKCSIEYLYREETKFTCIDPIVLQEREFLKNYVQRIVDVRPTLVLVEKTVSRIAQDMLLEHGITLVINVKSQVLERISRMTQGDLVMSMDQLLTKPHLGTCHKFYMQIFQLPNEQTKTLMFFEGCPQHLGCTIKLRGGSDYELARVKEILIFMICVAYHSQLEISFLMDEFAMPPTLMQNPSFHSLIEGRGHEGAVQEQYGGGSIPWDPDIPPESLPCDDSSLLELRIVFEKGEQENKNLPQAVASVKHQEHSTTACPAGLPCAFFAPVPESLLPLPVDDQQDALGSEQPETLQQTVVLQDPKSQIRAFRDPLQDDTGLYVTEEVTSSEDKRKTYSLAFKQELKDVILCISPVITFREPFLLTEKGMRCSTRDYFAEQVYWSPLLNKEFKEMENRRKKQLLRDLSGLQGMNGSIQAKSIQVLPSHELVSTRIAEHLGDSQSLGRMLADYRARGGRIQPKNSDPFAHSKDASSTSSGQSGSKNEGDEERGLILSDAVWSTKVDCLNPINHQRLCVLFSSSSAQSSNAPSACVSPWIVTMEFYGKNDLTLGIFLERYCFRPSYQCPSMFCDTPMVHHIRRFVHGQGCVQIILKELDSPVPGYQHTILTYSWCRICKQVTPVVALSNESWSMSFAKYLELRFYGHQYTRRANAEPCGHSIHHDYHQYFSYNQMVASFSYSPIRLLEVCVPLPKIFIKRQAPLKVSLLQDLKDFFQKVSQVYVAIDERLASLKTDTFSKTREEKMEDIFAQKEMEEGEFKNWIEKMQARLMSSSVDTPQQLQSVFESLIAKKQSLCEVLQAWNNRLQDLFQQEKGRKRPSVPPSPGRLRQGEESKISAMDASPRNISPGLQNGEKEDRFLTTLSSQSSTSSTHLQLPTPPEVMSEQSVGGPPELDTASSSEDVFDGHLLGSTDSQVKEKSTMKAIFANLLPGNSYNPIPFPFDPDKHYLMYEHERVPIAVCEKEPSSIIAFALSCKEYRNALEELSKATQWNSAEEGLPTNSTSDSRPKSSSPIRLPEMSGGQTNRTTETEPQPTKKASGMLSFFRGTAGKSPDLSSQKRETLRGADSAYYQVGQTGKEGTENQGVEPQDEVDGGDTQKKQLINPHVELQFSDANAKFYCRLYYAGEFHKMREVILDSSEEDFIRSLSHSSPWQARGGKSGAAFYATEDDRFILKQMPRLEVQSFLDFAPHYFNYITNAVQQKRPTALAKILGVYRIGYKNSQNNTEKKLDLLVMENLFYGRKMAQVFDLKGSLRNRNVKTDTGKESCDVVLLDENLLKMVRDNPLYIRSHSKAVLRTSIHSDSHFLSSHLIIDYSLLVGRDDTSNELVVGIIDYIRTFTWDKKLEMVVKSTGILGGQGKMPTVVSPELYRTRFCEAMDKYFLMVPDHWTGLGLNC

| IC50 [nM] | SMILES |
| --- | --- |
| 8.2 | Cn1cc(-c2cc3nc(-n4ccc(-c5ccccc5)n4)nc(N4CCOCC4)c3o2)cn1 [Compound 208, 6-(1-methylpyrazol-4-yl)-4-morpholino-2-(3-phenylpyrazol-1-yl)furo[3,2-d]pyrimidine] |
| 9 | Cc1cccc(-c2cc(Nc3nc(N4CCOCC4)c4oc(-c5ccncc5)cc4n3)[nH]n2)n1 [Compound 20, N-[5-(6-methyl-2-pyridyl)-1H-pyrazol-3-yl]-4-morpholino-6-(4-pyridyl)furo[3,2-d]pyrimidin-2-amine, hydrogen chloride] |
| 10 | CN1CCC(c2cc3nc(Nc4cc(-c5ccncc5)n[nH]4)nc(N4CCOCC4)c3o2)CC1 [Compound 34, 6-(1-methylpiperidin-4-yl)-4-morpholino-N-(3-(pyridin-4-yl)-1H-pyrazol-5-yl)furo[3,2-d]pyrimidin-2-amine hydrochloride] |
| 185 | c1cc(-c2cc3nc(Nc4cc(C5CC5)n[nH]4)nc(N4CCOCC4)c3o2)ccn1 [Compound 68, N-(5-cyclopropyl-1H-pyrazol-3-yl)-4-morpholino-6-(pyridin-4-yl)furo[3,2-d]pyrimidin-2-amine, hydrogen chloride] |
| 279 | Cc1cc(Nc2nc(N3CCOCC3)c3oc(-c4ccncc4)cc3n2)[nH]n1 [Compound 5, N-(5-methyl-1H-pyrazol-3-yl)-4-morpholino-6-(4-pyridyl)furo[3,2-d]pyrimidin-2-amine, hydrogen chloride] |
| 0.9 | C[C@@H](NC(=O)c1cc2nc(Nc3cc(-c4ccccc4)n[nH]3)nc(N3CCOCC3)c2o1)C1CC1 [Compound 64, (R)—N-(1-cyclopropylethyl)-4-morpholino-2-((5-phenyl-1H-pyrazol-3-yl)amino)furo[3,2-d]pyrimidine-6-carboxamide hydrochloride] |
| 45.5 | CN1CCC(NC(=O)c2cc3nc(-n4cc(-c5ccccc5)cn4)nc(N4CCOCC4)c3o2)C1 (centres unmarked) [Compound 170, N-(1-methylpyrrolidin-3-yl)-4-morpholino-2-(4-phenylpyrazol-1-yl)furo[3,2-d]pyrimidine-6-carboxamide] |
| 21.7 | Cn1ccc(-c2cc3nc(-n4cc(-c5cccc(Cl)c5)cn4)nc(N4CCOCC4)c3o2)n1 [Compound 192, 2-(4-(3-chlorophenyl)-1H-pyrazol-1-yl)-6-(1-methyl-1H-pyrazol-3-yl)-4-morpholinofuro[3,2-d]pyrimidine] |
| 0.2 | [2H]C([2H])([2H])c1cccc(-c2cnn(-c3nc(N4CCOCC4)c4oc(-c5ccn(C)n5)cc4n3)c2)c1 [Compound 215, 6-(1-methylpyrazol-3-yl)-4-morpholino-2-[4-[3-(trideuteriomethyl)phenyl]pyrazol-1-yl]furo[3,2-d]pyrimidine] |
| 79.8 | c1cc(-c2cc3nc(Nc4cc(CC5CCC5)n[nH]4)nc(N4CCOCC4)c3o2)ccn1 [Compound 71] |
| 3.4 | COc1cccc(-c2ccn(-c3nc(N4CCOCC4)c4oc(C(=O)NC5CCOCC5)cc4n3)n2)c1 [Compound 221, 2-[3-(3-methoxyphenyl)pyrazol-1-yl]-4-morpholino-N-tetrahydropyran-4-yl-furo[3,2-d]pyrimidine-6-carboxamide] |
| 55.6 | Cc1c(-c2cccnc2)oc2c(N3CCOCC3)nc(-n3ccc(-c4ccccc4)n3)nc12 [Compound 180, 7-methyl-4-morpholino-2-(3-phenylpyrazol-1-yl)-6-(3-pyridyl)furo[3,2-d]pyrimidine] |
| 78.3 | CONC(=O)c1cc2nc(-n3ccc(-c4cccc(C)c4)n3)nc(N3CCOCC3)c2o1 [Compound 99, N-methoxy-4-morpholino-2-(3-(m-tolyl)-1H-pyrazol-1-yl)fur[3,2-d]pyrimidine-6-carboxamide] |
| 78.7 | Cc1cccc(-c2ccn(-c3nc(N4CCOCC4)c4oc(C(=O)NS(C)(=O)=O)cc4n3)n2)c1 [Compound 98, N-(methylsulfonyl)-4-morpholino-2-(3-(m-tolyl)-1H-pyrazol-1-yl)furo[3,2-d]pyrimidine-6-carboxamide] |
| 66 | O=C(c1cc2nc(Nc3cc(-c4ccccc4)[nH]n3)nc(N3CCOCC3)c2o1)N1CCCC1 [Compound 54, [4-morpholino-2-[(5-phenyl-1H-pyrazol-3-yl)amino]furo[3,2-d]pyrimidin-6-yl]-pyrrolidin-1-yl-methanone; hydrogen chloride] |
| 48 | c1ccc(-c2coc(Nc3nc(N4CCOCC4)c4oc(-c5ccncc5)cc4n3)n2)cc1 [Compound 45, 4-morpholino-N-(4-phenyloxazol-2-yl)-6-(4-pyridyl)furo[3,2-d]pyrimidin-2-amine, hydrogen chloride] |
| 152 | c1ccc(-c2ccn(-c3nc(N4CCOCC4)c4oc(-c5cccnc5)cc4n3)n2)cc1 [Compound 156, 4-morpholino-2-(3-phenyl-1H-pyrazol-1-yl)-6-(pyridin-3-yl)furo[3,2-d]pyrimidine] |
| ≥ 10000 | CNC(=O)c1cc2nc(Nc3cc(C(F)(F)F)n[nH]3)nc(N3CCOCC3)c2o1 [Compound 81, N-methyl-4-morpholino-2-((5-(trifluoromethyl)-1H-pyrazol-3-yl)amino)furo[3,2-d]pyrimidine-6-carboxamide, hydrogen chloride] |
| 66.2 | Cc1cccc(-c2cnn(-c3nc(N4CCOCC4)c4oc(C(=O)NCCS(=O)(=O)N(C)C)cc4n3)c2)c1 [Compound 128, N-(2-(N,N-dimethylsulfamoyl)ethyl)-4-morpholino-2-(4-(m-tolyl)-1H-pyrazol-1-yl)furo[3,2-d]pyrimidine-6-carboxamide] |
| 32 | c1ccc(-n2ccc(Nc3nc(N4CCOCC4)c4oc(-c5ccncc5)cc4n3)n2)cc1 [Compound 48, 4-morpholino-N-(1-phenylpyrazol-3-yl)-6-(4-pyridyl)furo[3,2-d]pyrimidin-2-amine, hydrogen chloride] |
